Reference: article PMC7907646, “Identification of a Novel Pattern Recognition Receptor DM9 Domain Containing Protein 4 as a Marker for Pro-Hemocyte of Pacific Oyster Crassostrea gigas” (Frontiers in Immunology, 2021)

Molecular target: T1, CgDM9CP-4 (rCgDM9CP-4) (Magallana gigas, UniProt A0A8W8N023)
T1 construct: full ORF, 145 residues, two tandem DM9 domains, predicted 16 kDa (~18 kDa on gel); pET-30a (NdeI/XhoI), His tag, E. coli Transetta (DE3), Ni column
Test: ELISA on mannose-coated plate, one-site fit
Type: binding
Conditions: apparent Kd; mannose coated at 20 μg in pH 9.6 buffer; 5 mmol L^-1 CaCl2, 0.1 mg mL^-1 BSA, 37°C; anti-His detection

T1 sequence (A0A8W8N023 entry or part of it): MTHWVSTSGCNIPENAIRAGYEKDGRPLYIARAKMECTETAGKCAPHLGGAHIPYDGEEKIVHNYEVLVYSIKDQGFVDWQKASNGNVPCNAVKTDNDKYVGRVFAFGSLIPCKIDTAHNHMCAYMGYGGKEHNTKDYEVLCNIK

OC[C@H]1OC(O)[C@@H](O)[C@@H](O)[C@@H]1O (stereo partly shown) [Mannose]
Kd: 0.09 µM
